{
  "source": "patent US20250057808A1",
  "about": "“COMPOSITION COMPRISING BETA LACTAM FOR TREATING ALCOHOL DEPENDENCE AND ALCOHOL ASSOCIATED DISEASES OR CONDITIONS” (Temple University of the Commonwealth System of Higher …, priority 2023, published 2025)",
  "key": {"[1]": {"test_system": "BDNF", "assay": "Western blot BDNF in subregions of mPFC and NAc", "format": "in vivo, Male P rats", "method": "All P rats were euthanized by CO2 inhalation and decapitated with a guillotine 24 hours after the final i.p. injection was administered on Day 6 of Week 6. Brains were removed and immediately frozen on dry ice and stored at −80° C. The mPFC subregions (infralimbic cortex and prelimbic cortex) and NAc subregions (core and shell) were dissected using a cryostat machine kept at −20° C. Surgical blades were used to dissect all brain regions following visualized landmarks using the stereotaxic coordinates provided by Paxinos and colleague's rat brain stereotactic atlas. All brain regions were stored in −80° C. Western Blot analyses.\nWestern blot was performed to determine the expression of BDNF, TNF-α, RAGE, HMGβ-1, and β-tubulin in the subregions of mPFC and NAc as preformed in previous studies.\nBrain samples were lysed with a lysing buffer containing protease inhibitors. The amount of protein in each sample was quantified using a detergent compatible protein assay (Bio-Rad, Hercules, CA, USA). Polyacrylamide gels (10%) were loaded with the lysate mixture, and proteins were separated using gel electrophoresis for 1 hour. Proteins were then transferred from the gels onto Polyvinylidene difluoride (PVDF) membranes (BioRad). After transfer, membranes were incubated for 30 minutes in a mixture of nonfat milk in 1×Tris-buffered saline with Tween-20 (TBST) at room temperature. Membranes were then incubated at 4° C. for 24 hours with primary antibodies: anti-rabbit BDNF (1:1000, Abeam, #ab108319), anti-rabbit TNF-α (1:500, Abeam, #ab9739), anti-rabbit HMGβ-1 (1:500, Abeam, #ab18256), and anti-rabbit RAGE (1:1000, Abeam, #ab37407). Anti-mouse-β-tubulin (1:1000, Cell Signaling Technology, #D71G9) was used as a loading control antibody. After incubating for 24 hours, secondary antibody such as donkey anti-rabbit (1:4000, Invitrogen, #31458) or anti-mouse (1:4000, Cell Signaling, #7076S) was added to the membrane for 1 hour at room temperature. The membranes were then washed with 1×TBST three times for 5 minutes each and then dried. Membranes were then incubated in chemiluminescent reagents (Super Signal West Pico, Pierce Inc.) for 2 minutes. Blot images were developed using ChemiDoc. Imaging System and ImageJ software version 1.53a were used to quantify and analyze the expression of BDNF, TNF-α, RAGE, HMGβ-1, and β-tubulin.\nThe data for the water/saline control group were expressed as 100% based on the values corresponding to the ethanol/saline and ethanol/MC-100093 groups for each set of blotting. Thus, the expression of selected proteins for each group (ethanol/saline group or ethanol/MC-100093 group) was calculated relative to the water/saline control group being set to 100%.\nStatistical analyses were performed using GraphPad Prism Version 10. Two-way repeated measures ANOVA followed by Bonferroni post-hoc tests were used to compare water and ethanol intake, and body weight, amongst water group, ethanol/saline group and ethanol/MC-100093 group. A one-way ANOVA test was performed to compare the expression of the studied proteins in selected brain regions in water/saline, ethanol/saline and ethanol/MC-100093 groups. Statistical significance was determined by a p-value of or less than 0.05."}, "[2]": {"test_system": "GLT-1", "conditions": "cited from earlier work"}, "[3]": {"test_system": "xCT", "assay": "Western blot xCT expression in NAc-core, NAc-shell and liver (50 mg/kg study)", "format": "in vivo, P rats", "conditions": "MC-100093 50 mg/kg or ceftriaxone 200 mg/kg i.p. 5 days; for Protein expression of xCT in the NAc-shell: vs Ethanol group", "method": "We used micro-punch procedure to dissect the subregions of the NAc such as NAc-core and NAc-shell as well as the subregions of prefrontal cortex such as infralimbic (IL) and prelimbic (PL) from the brain on day 6 after the last injection day. P rats were removed from the cage and rapidly euthanized by CO2 inhalation followed by rapid decapitation with a guillotine. Brains were isolated and immediately frozen on dry ice and stored at −80° C. The stereotaxic coordinates provided by Paxinos and colleague's rat brain stereotactic atlas was used to isolate NAc-core and NAc-shell using a cryostat apparatus (−20° C.), which then kept at −80° C. for later western blot analyses.\nWestern Blot assay was performed to measure changes in the expression of GLT-1, xCT, mGluR1, mGluR5, PPAR-α, PPARγ, GAPDH and β-tubulin in the NAc-core and NAc-shell as described in previous publications. A lysis buffer containing protease and phosphatase inhibitors was used to generate a homogenate of liver, Nac-core, and Nac-shell samples. The amount of protein was quantified using a detergent compatible protein assay (Bio-Rad, Hercules, CA, USA) for each sample. Samples were mixed with laemmli dye and loaded with equal amounts on polyacrylamide gels (10%), which separated the proteins using electrophoresis. After that, polyvinylidene difluoride (PVDF) membranes were used to transfer the proteins electrophoretically from the gels. Membranes were incubated in 5% free-fat milk in Tris-buffered saline with Tween-20 (TBST) for 30-60 minutes at room temperature. Membranes were then incubated with appropriate primary antibodies overnight at 4° C.: rabbit anti-GLT-1 (1:5000, Abcam, ab41621), rabbit anti-xCT (1:2000, Abcam, ab175186), rabbit anti-mGluR1 (1:1000, Abcam, ab82211), rabbit anti-mGluR5 (1:1000, Abcam, ab76316), rabbit anti-PPAR-α (1:1000, Abcam, ab24509), and rabbit anti-PPARγ (1:1000, Abcam, ab209350). Mouse anti-β-tubulin (1:1000; BioLegend) was used as a loading control antibody for the brain samples and rabbit anti-GAPDH (1:5000; cell signaling) was used as a loading control antibody for the liver samples. Membranes were washed five times on the next day with TBST followed by incubation with appropriate secondary antibody (1:5000) for 90 minutes at room temperature. Chemiluminescent reagents (Super Signal West Pico, Pierce Inc.) were used to detect the proteins using a GeneSys imaging system to develop the digitized blot images. Water-control group data were represented as 100% and all other values were expressed relative to control group to detect changes in the expression of the protein of interest in the brain and liver samples.\nAll statistical analyses were conducted with Graphpad Prism software, with p-values of 0.05 or less being statistically significant. We performed a two-way (mixed model) ANOVA followed by Bonferroni multiple comparison post-hoc test to analyze 24 h ethanol consumption, 24 h water consumption, and daily body weight. For the Western blot and oil red O staining analysis, we performed one-way ANOVA with Newman-Keuls as a post hoc multiple comparison test to measure differences between groups as a percentage (relative to control values)."}, "[4]": {"conditions": "ethanol/MC-100093 group (100 mg/kg i.p.) compared to water/saline and ethanol/saline groups"}},
  "note": "“Also recorded” adds a separate entry of the source.",
  "data": [
    {"smiles": "C[C@@H](O)[C@H]1C(=O)N[C@@H]1[C@@H](C)C(=O)N1CCN(C)CC1", "note": "[MC-100093]", "values": [
      {"measurement": "BDNF expression in the NAc shell", "setting": "[1]; 100 mg/kg i.p., compared to ethanol/saline group", "value": "significant increase in BDNF expression"},
      {"measurement": "Increase in BDNF expression in the NAc core", "setting": "[1]; 100 mg/kg i.p., compared to water/saline and ethanol/saline groups", "value": 11, "unit": "%"},
      {"measurement": "Increase in BDNF expression in the IL (mPFC)", "setting": "[1]; [4]", "value": 40, "unit": "%"},
      {"measurement": "Increase in BDNF expression in the PL (mPFC)", "setting": "[1]; [4]", "value": 27, "unit": "%"},
      {"measurement": "BDNF expression in the subregions of NAc and mPFC (summary)", "setting": "[1]; male P rats, 100 mg/kg i.p., 100 mg/kg", "value": "attenuated ethanol-induced downregulation of brain derived neurotrophic factor (BDNF) expression"},
      {"measurement": "GLT-1 upregulatory properties", "setting": "[2]", "value": "potent GLT-1 upregulator; also recorded: enhanced GLT-1 upregulatory properties compared to ceftriaxone"},
      {"measurement": "Protein expression of xCT in the NAc-core", "setting": "[3]; among all groups", "value": "non-significant difference; also recorded: no significant difference"},
      {"measurement": "Protein expression of xCT in the liver", "setting": "[3]; between all groups", "value": "no significant differences"},
      {"measurement": "Protein expression of xCT in the NAc-shell", "setting": "[3]", "value": "significantly higher level of xCT; also recorded: normalized GLT-1 and xCT levels in the NAc-shell"},
      {"measurement": "Protein expression of xCT in the NAc-shell", "setting": "[3]; listed as MC-100095", "value": "significantly increased xCT expression"}
    ]}
  ]
}
